Experiments:
MCF7 = test: Cleaved caspase-3 immunofluorescence in breast cancer cells; format: cell-based, human; settings: p53-positive cell line, 10 μM, 3 days
Protocol: (§1) Human fetal lung fibroblasts (IMR-90) were cultured in Dulbecco's modified eagle medium (DMEM) supplemented with 10% FBS and penicillin/streptomycin. LL 29 (AnHa) cells were obtained from the ATCC and growth to confluence using the ATCC protocol, but were subcultured as described for IMR-90 before initiation of all experiments. Quiescence was induced by replacing culture media with media containing 0.2% FBS. MCF-7 and MDA-MB-231 breast cancer cells were cultured in RPMI supplemented with 10% FBS and penicillin/streptomycin. All cells were cultured at 3% O2, and used between 25 and 40 population doublings. All cells were mycoplasma free.
(§2) For EdU labeling, cells were cultured with EdU (10 μM) for 24 h, fixed in 4% buffered formalin for 10 min, washed in PBS, and permeabilized in 0.5% Triton X-100 for 30 min. Cells were treated as instructed by the manufacturer Life Technologies Cat #C10337). For immunofluorescence, cells were blocked in 10% normal goat serum for 30 min, washed, and incubated overnight in antibodies to Ki67 (Abcam) or cleaved caspase 3 (Cell Signaling). Cell were then washed, incubated in fluorescent secondary antibodies, and mounted using vectashield mounting medium with DAPI.

MDA-MB-231 = test: as above; format: cell-based, human; settings: p53-mutant cell line, 10 μM, 3 days
Protocol: as §1, §2

SMILES: CCCCC/C=C/C=C1/C(=O)C=C[C@@H]1C/C=C\CCCC(=O)O [15d-PGJ2]
- apoptosis (cleaved caspase-3) (MCF7): did not
- apoptosis (cleaved caspase-3) (MDA-MB-231): induced apoptosis
